pIC50: −log10 of the molar value.

The target in the experiment is T1, Recombinant human renin (Homo sapiens, UniProt P00797).
T1 construct: isolate the active form (residues 67-406); made in house; host or cells: FreeStyle 293-F cells (transient expression of pcDNA3.1(+)/hREN)
T1 sequence (P00797 67-406): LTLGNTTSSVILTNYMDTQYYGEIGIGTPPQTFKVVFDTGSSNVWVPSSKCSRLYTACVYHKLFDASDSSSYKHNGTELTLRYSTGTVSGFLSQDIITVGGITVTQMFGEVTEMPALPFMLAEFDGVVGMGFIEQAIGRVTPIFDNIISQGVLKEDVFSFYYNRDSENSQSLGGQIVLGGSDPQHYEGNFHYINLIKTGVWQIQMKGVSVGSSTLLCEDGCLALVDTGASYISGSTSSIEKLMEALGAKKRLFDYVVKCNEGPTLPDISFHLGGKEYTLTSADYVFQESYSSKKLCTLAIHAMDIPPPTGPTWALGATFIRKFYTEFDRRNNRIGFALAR
Briefly: In vitro enzymatic activity assay of renin inhibitors (fluorogenic peptide substrate). The format is biochemical. Conditions: read-out: IC50 of Exemplified Compounds Against Renin. In outline: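 Enzyme: recombinant human renin, 3 nM final, 10 min compound pre-incubation at 37 °C; buffer 50 mM Hepes pH 7.4 with 0.1 mg/mL BSA or extra 2% BSA; 5% DMSO.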
Usually pIC50 stands for the IC50 on a negative log10 scale, so that one unit is a factor of ten. With `COCCCn1c([C@@H]2CCCN(C(=O)C[C@H](N)Cc3ccc4ccccc4c3)C2)nc2ccc([N+](=O)[O-])cc21` [Compound 114, (R)-3-amino-1-((R)-3-(1-(3-methoxypropyl)-6-nitro-1H-benzo[d]imidazol-2-yl)piperidin-1-yl)-4-(naphthalen-2-yl)butan-1-one], the pIC50 is less than 6.00. The value for `COCCCn1c([C@@H]2CCCN(C(=O)C[C@H](N)Cc3ccc4ccccc4c3)C2)nc2cc([N+](=O)[O-])ccc21` [Compound 115, (R)-3-arni no-1-((R)-3-(1-(3-methoxypropyl)-5-nitro-1H-benzo[d]imidazol-2-yl)piperidin-1-yl)-4-(naphthalen-2-yl)butan-1-one] was 6.00 to 7.00; that for `COCCCn1c([C@@H]2CCCN(C(=O)C[C@H](N)Cc3ccc4ccccc4c3)C2)nc2ccc(C(C)C)cc21` [Compound 116, (R)-3-amino-1-((R)-3-(6-isopropyl-1-(3-methoxypropyl)-1H-benzo[d]imidazol-2-yl)piperidin-1-yl)-4-(naphthalen-2-yl)butan-1-one] was 6.00 to 7.00. The value for `COCCCn1c([C@@H]2CCCN(C(=O)C[C@H](N)Cc3ccc(-c4ccccc4)cc3)C2)nc2c(Cl)cccc21` [Compound 118, (R)-3-amino-4-(biphenyl-4-yl)-1-((R)-3-(4-chloro-1-(3-methoxypropyl)-1H-benzo[d]imidazol-2-yl)piperidin-1-yl)butan-1-one] was more than 7.00; that for `COCCCn1c([C@@H]2CCCN(C(=O)C[C@H](N)c3cccnc3)C2)nc2ccccc21` [Compound 119, (S)-3-amino-1((R)-3-(1-(3-methoxypropyl)-1H-benzo[d]imidazol-2-yl)piperidin-1-yl)-3-(pyridin-3-yl)propan-1-one] was 6.00 to 7.00; that for `COCCCn1c([C@@H]2CCCN(C(=O)C[C@H](N)c3cnccc3OC)C2)nc2ccccc21` [Compound 120, (S)-3-Amino-1((R)-3-(1-(3-methoxypropyl)-1H-benzo[d]imidazol-2-yl)piperidin-1-yl)-3-(4-methoxypyridin-3-yl)propan-1-one] was less than 6.00.

Consider `COCCCn1c([C@@H]2CCCN(C(=O)C[C@H](N)c3cccc(OC)c3)C2)nc2ccccc21` [Compound 121], for which the pIC50 is less than 6.00.

`COCCCn1c([C@@H]2CCCN(C(=O)C[C@H](N)Cc3cccc(-c4ccccc4)c3)C2)nc2ccccc21` [Compound 122, (R)-3-amino-4-(biphenyl-3-yl)-1-((R)-3-(1-(3-methoxypropyl)-1H-benzo[d]imidazol-2-yl)piperidin-1-yl)butan-1-one]: the pIC50 was more than 7.00. For `COCCCn1c([C@@H]2CCCN(C(=O)C[C@H](N)Cc3ccc(-c4ccc(C(=O)OC)cc4)cc3)C2)nc2ccccc21` [Compound 123, methyl 4′-((R)-2-amino-4-((R)-3-(1-(3-methoxypropyl)-1H-benzo[d]imidazol-2-yl)piperidin-1-yl)-4-oxobutyl)biphenyl-4-carboxylate], the pIC50 was more than 7.00. The value for `COCCCn1c([C@@H]2CCCN(C(=O)C[C@H](N)Cc3ccc(-c4ccccc4)cc3)C2)nc2ccccc21` [Compound 124, (R)-3-amino-4-(biphenyl-4-yl)-1-((R)-3-(1-(3-methoxypropyl)-1H-benzo[d]imidazol-2-yl)piperidin-1-yl)butan-1-one] was more than 7.00. For the molecule `COCCCn1c([C@@H]2CCCN(C(=O)C[C@H](N)Cc3ccc(-c4cccnc4)cc3)C2)nc2ccccc21` [Compound 125, (R)-3-amino-1-((R)-3-(1-(3-methoxypropyl)-1H-benzo[d]imidazol-2-yl)piperidin-1-yl)-4-(4-(pyridin-3-yl)phenyl)butan-1-one], the negative-log IC50 (pIC50) was more than 7.00.

Take `COCCCn1c([C@@H]2CCCN(C(=O)C[C@H](N)Cc3ccc(-c4ccncc4)cc3)C2)nc2ccccc21` [Compound 126, (R)-3-amino-1-((R)-3-(1-(3-methoxypropyl)-1H-benzo[d]imidazol-2-yl)piperidin-1-yl)-4-(4-(pyridin-4-yl)phenyl)butan-1-one]: the pIC50 was more than 7.00. The value for `COCCCn1c([C@@H]2CCCN(C(=O)C[C@H](N)Cc3ccc(-c4ccc(C(=O)N5CCOCC5)cc4)cc3)C2)nc2ccccc21` [Compound 127, (R)-3-amino-1-((R)-3-(1-(3-methoxypropyl)-1H-benzo[d]imidazol-2-yl)piperidin-1-yl)-4-(4′-(morpholine-4-carbonyl)biphenyl-4-yl)butan-1-one] was more than 7.00. Regarding `COCCCn1c([C@@H]2CCCN(C(=O)C[C@H](N)Cc3ccc(-c4ccc(N5CCOCC5)cc4)cc3)C2)nc2ccccc21` [Compound 128, (R)-3-amino-1-((R)-3-(1-(3-methoxypropyl)-1H-benzo[d]imidazol-2-yl)piperidin-1-yl)-4-(4′-morpholinobiphenyl-4-yl)butan-1-one], the pIC50 was more than 7.00.

For the molecule `COCCCn1c([C@@H]2CCCN(C(=O)C[C@H](N)Cc3ccc(-c4ccc(NC(C)=O)cc4)cc3)C2)nc2ccccc21` [Compound 129, N-(4′-((R)-2-amino-4-((R)-3-(1-(3-methoxypropyl)-1H-benzo[d]imidazol-2-yl)piperidin-1-yl)-4-oxobutyl)biphenyl-4-yl)acetamide], the pIC50 is more than 7.00. On to `COCCCn1c([C@@H]2CCCN(C(=O)C[C@H](N)Cc3ccc(-c4ccccc4COC)cc3)C2)nc2ccccc21` [Compound 130, (R)-3-amino-4-(2′-(methoxymethyl)biphenyl-4-yl)-1-((R)-3-(1-(3-methoxypropyl)-1H-benzo[d]imidazol-2-yl)piperidin-1-yl)butan-1-one], for which the pIC50 is more than 7.00. The value for `COCCCn1c([C@@H]2CCCN(C(=O)C[C@H](N)Cc3ccc(-c4ccncc4Cl)cc3)C2)nc2ccccc21` [Compound 131, (R)-3-amino-4-(4-(3-chloropyridin-4-yl)phenyl)-1-((R)-3-(1-(3-methoxypropyl)-1H-benzo[d]imidazol-2-yl)piperidin-1-yl)butan-1-one] was more than 7.00; that for `COCCCn1c([C@@H]2CCCN(C(=O)C[C@H](N)Cc3ccc(-c4ccc(OC)nc4OC)cc3)C2)nc2ccccc21` [Compound 132, (R)-3-amino-4-(4-(2,6-dimethoxypyridin-3-yl)phenyl)-1-((R)-3-(1-(3-methoxypropyl)-1H-benzo[d]imidazol-2-yl)piperidin-1-yl)butan-1-one] was more than 7.00. Take `COCCCn1c([C@@H]2CCCN(C(=O)C[C@H](N)Cc3ccc(-c4ccnc(Cl)c4)cc3)C2)nc2ccccc21` [Compound 133, (R)-3-amino-4-(4-(2-chloropyridin-4-yl)phenyl)-1-((R)-3-(1-(3-methoxypropyl)-1H-benzo[d]imidazol-2-yl)piperidin-1-yl)butan-1-one]: the pIC50 is more than 7.00. In the case of `COCCCn1c([C@@H]2CCCN(C(=O)C[C@H](N)Cc3ccc(-c4ccc(C(=O)NC5CC5)cc4)cc3)C2)nc2ccccc21` [Compound 134, 4′-((R)-2-amino-4-((R)-3-(1-(3-methoxypropyl)-1H-benzo[d]imidazol-2-yl)piperidin-1-yl)-4-oxobutyl)-N-cyclopropylbiphenyl-4-carboxamide], the pIC50 was more than 7.00.

`COCCCn1c([C@@H]2CCCN(C(=O)C[C@H](N)Cc3ccc(-c4ccc(N5CCOCC5)nc4)cc3)C2)nc2ccccc21` [Compound 135, (R)-3-amino-1-((R)-3-(1-(3-methoxypropyl)-1H-benzo[d]imidazol-2-yl)piperidin-1-yl)-4-(4-(6-morpholinopyridin-3-yl)phenyl)butan-1-one]: the negative-log IC50 (pIC50) was more than 7.00. Consider `COCCCn1c([C@@H]2CCCN(C(=O)C[C@H](N)Cc3ccc(-c4ccc(N)nc4)cc3)C2)nc2ccccc21` [Compound 136, (R)-3-amino-4-(4-(6-aminopyridin-3-yl)phenyl)-1-((R)-3-(1-(3-methoxypropyl)-1H-benzo[d]imidazol-2-yl)piperidin-1-yl)butan-1-one], for which the pIC50 is more than 7.00. The value for `COCCCn1c([C@@H]2CCCN(C(=O)C[C@H](N)Cc3ccc(-c4c(C)n[nH]c4C)cc3)C2)nc2ccccc21` [Compound 137, (R)-3-amino-4-(4-(3,5-dimethyl-1H-pyrazol-4-yl)phenyl)-1-((R)-3-(1-(3-methoxypropyl)-1H-benzo[d]imidazol-2-yl)piperidin-1-yl)butan-1-one] was more than 7.00; that for `CCOc1ccc(-c2ccc(C[C@@H](N)CC(=O)N3CCC[C@@H](c4nc5ccccc5n4CCCOC)C3)cc2)cn1` [Compound 138, (R)-3-amino-4-(4-(6-ethoxypyridin-3-yl)phenyl)-1-((R)-3-(1-(3-methoxypropyl)-1H-benzo[d]imidazol-2-yl)piperidin-1-yl)butan-1-one] was more than 7.00; that for `COCCCn1c([C@@H]2CCCN(C(=O)C[C@H](N)Cc3ccc(-c4ccc5nccn5c4)cc3)C2)nc2ccccc21` [Compound 139, (R)-3-amino-4-(4-(imidazo[1,2-a]pyridin-6-yl)phenyl)-1-((R)-3-(1-(3-methoxypropyl)-1H-benzo[d]imidazol-2-yl)piperidin-1-yl)butan-1-one] was more than 7.00. The value for `COCCCn1c([C@@H]2CCCN(C(=O)C[C@H](N)Cc3ccc(-c4ccc5nonc5c4)cc3)C2)nc2ccccc21` [Compound 140, (R)-3-amino-4-(4-(benzo[c][1,2,5]oxadiazol-5-yl)phenyl)-1-((R)-3-(1-(3-metboxypropyl)-1H-benzo[d]imidazol-2-yl)piperidin-1-yl)butan-1-one] was more than 7.00.
